What all share (assay type): cell-based
Assay [1] deals with VEGF stimulated Phospho-ERK in HUVEC. In words: Growth factor stimulated p-ERK assay in HUVECs (VEGF stimulation, ERK1/2 Bioplex). Conditions: Homo sapiens, compound 2 hrs, then 50 ng/ml VEGF 10 min; for inhibition at 0.1 µM: @ 100 nM. As for the experimental part:
Growth Factor Stimulated p-ERK assay in HUVECs
Exponentially growing human endothelial HUVECs cells (human umbilical vein endothelial cells, cat# CC-2517, Cambrex, Walkersville, Md.) were seeded at twenty five thousand cells/well in 96 well plates in EBM-2 MV medium with growth factors (cat# CC-3202, Cambrex) and grown at 37° C. in 5% CO2. Sixteen hours post-plating, the cells were changed to serum-free medium (RPMI 1640 containing 0.1% BSA (bovine serum albumin) and compounds were added at different concentrations for 2 hrs, after which the cells were stimulated for 10 min with 50 ng/ml of either VEGF (vascular endothelial growth factor, Protein Sciences, Meriden, Conn.) or bFGF (basic fibroblast growth factor cat# PHG0026, Biosource International, Camarillo, Calif.). The rest of the assay was performed per manufacturer indications for the ERK½ Bioplex assay (cat#171-304004, Bio-Rad, Hercules, Calif.). After removing culture medium by aspiration, the cells were quickly rinsed with 100 μl of cell wash buffer A to stop treatment reaction. Eighty microliters of cell lysis buffer were then immediately added to each well of the 96 well plate which was put on ice. Cells in each well were lysed by pipetting up and down 5 times with a multi-channel pipet. The plate was then agitated on a microtiter plate shaker at 300 rpm for 20 min at 4° C. Cellular debris were pelleted by centrifugation at 4500 g for 15 min at 4° C. and the supernatant was collected. Forty five microliters of supernatant was diluted with an equal volume of Bio-Plex phosphoprotein assay Buffer B, The coupled and color coated beads were added into a 96 well filter plate, and the prepared lysates were added. The beads and lysate mixture was incubated at room temperature for 15-18 hrs. The following day, the plate was vacuum-filtered and then washed 3×. Twenty-five microliters of detection antibody solution were added to each well and the plate was then incubated for 30 min at room temperature. The plate was then vaccum-filtered and washed as described previously. Fifty microliters of streptavidin-PE solution was added to each well, the plate was incubated for 10 min at room temperature and then was then vaccum-filtered and washed as described above. One hundred twenty-five microliters of resuspension buffer was added to each well and data were acquired on the Luminex 100 instrument (Bio-Rad).

Assay [2] has as its system VEGFR stimulated HUVEC proliferation. Put plainly: BRDU growth factor stimulated proliferation of HUVEC (VEGF stimulation). Conditions: Homo sapiens, 72 h, 80 ng/ml VEGF, 3 days, BrdU incorporation. As for the experimental part:
(§1) BRDU Growth Factor Stimulated Proliferation of HUVEC
(§2) Exponentially growing human umbilical vein endothelial cells (HUVEC; Cat# CC-2519A, Cambrex, Walkersville, Md.) were seeded at two thousand cells/well into Collagen IV-coated 96 well plates (Cat#35-4429, Becton Dickinson, Bedford, Mass.) in assay media containing RPMI-1640 (Cat#11875-093, Gibco, Carlsbad, Calif.), 0.5% charcoal-stripped serum (Cat# SH30068.03, HyClone, Logan, Utah), and 1% N-2 supplement (Cat#17502-048, Gibco, Carlsbad, Calif.). Fours hours after incubating the plates at 37° C. in 5% CO2, the cells were treated with different concentrations of compound (diluted in assay media with a final DMSO concentration=0.1%) and then were immediately stimulated with 80 ng/ml of vascular endothelial growth factor (VEGF, Cat#100-20, PeproTech, Rocky Hill, N.J.) or 1.5 ng/ml of basic fibroblast growth factor (bFGF, Catt#100-18B, PeproTech, Rocky Hill, N.J.). Treated cells were incubated for 3 days at 37° C. in 5% CO2. DNA synthesis was measured via the incorporation of bromodeoxyuridine (BrdU) into newly synthesized DNA using the Amersham Cell Proliferation BioTrack ELISA system (Cat# RPN250, Amersham, Piscataway, N.J.). Diluted BrdU solution (20 μl of stock BrdU diluted 1:20 fold into assay media) was added to each well and incubation proceeded for 6 hours at 37° C. in 5% CO2. The media was removed and the cells were fixed according to the specifications of the Amersham assay kit for 30 minutes at room temperature. After removing the fixative, blocking buffer (supplied by Amersham kit; 200 μl/well) was added and the plates were stored at 4° C. overnight. The blocking buffer was aspirated and peroxidase-labeled anti-BrdU antibody (supplied by Amersham kit; 100 μl/well) was added and incubated for 3 hours at room temperature. The plates were washed three times with wash buffer (supplied by Amersham kit; 300 μl/well/wash). Immediately following the washes, 100 μl of the TMB-substrate was dispensed into each well and the plates were further incubated for 30 minutes at room temperature. The reaction was terminated by the addition of 25 μl of 1M H2SO4. Plates were read immediately at 450 nm using a SpectraMAX 250 spectrophotometer plate reader (Molecular Devices, Sunnyvale, Calif.). The software utilized was SoftMAX pro v.2.4.1.

For assay [3], the system named is FGFR stimulated HUVEC proliferation. In words: BRDU growth factor stimulated proliferation of HUVEC (bFGF stimulation). Conditions: Homo sapiens, 72 h, 1.5 ng/ml bFGF, 3 days, BrdU incorporation. The procedure:
as §1, §2

The subject of another assay is HCT116 cells. Put plainly: Tumor cell proliferation (Alamar Blue), HCT116. Conditions: Homo sapiens, HCT-116, 72 h. As for the experimental part:
(§3) Human tumor cells (e.g., HCT116 or MDA-MB-231 cells), are seeded in a Costar 96-well plate at 3.0×10^3 cells/well and grown in 150 μl of RPMI complete media (Invitrogen Corporation, Grand Island, N.Y.) containing 10% fetal bovine serum (Hyclone, Logan, Utah) at 37° C. for 16 h in an incubator with 5% CO2. To each well, 50 μl of additional growth media containing 40 μM to 18 nM concentrations of compound with 0.4% DMSO is added. Cells are grown for another 72 h at 37° C. with 5% CO2. 20 μl of Alamar Blue (Trek Diagnostic Systems, Inc., Cleveland, Ohio) reagent is added to each well and incubated for 3 h at 37° C. Plates are read in a SpectraMax Gemini (Molecular Devices, Calif.) with 544 nm excitation and 590 nm emission wavelength. IC50 values are determined by linear regression analysis of log drug concentration versus percent inhibition.

A further assay relates to MDA-MB-231 cells. Put plainly: Tumor cell proliferation (Alamar Blue), MDA-MB-231. Conditions: Homo sapiens, MDA-MB-231, 72 h. The procedure: as §3

The structures appear in SMILES notation.

`Nc1ncnn2cc(CN3CCOCC3)c(-c3ccc(NC(=O)Nc4cc(C(F)(F)F)ccc4F)cc3)c12` [Example 30, N-{4-[4-amino-6-(morpholin-4-ylmethyl)pyrrolo[2,1-f][1,2,4]triazin-5-yl]phenyl}-N′-[2-fluoro-5-(trifluoromethyl)phenyl]urea] displayed an inhibition at 0.1 µM in assay [1] of more than 50%. Further, the IC50 in assay [2] lay within 0.1 to 0.5 µM; in assay [3], 100 to 500 nM; with HCT116 cells (bounds given in μM), 1.5 to 5 µM.
Turning to `Nc1ncnn2cc(C(=O)NCC(F)(F)F)c(-c3ccc(NC(=O)Nc4cc(C(F)(F)F)ccn4)cc3)c12` [Example 93, 4-amino-N-(2,2,2-trifluoroethyl)-5-{4-[({[4-(trifluoromethyl)pyridin-2-yl]amino}carbonyl)amino]phenyl}pyrrolo[2,1-f][1,2,4]triazine-6-carboxamide], in assay [1], the inhibition at 0.1 µM was less than 50%. In addition, in assay [1], the inhibition at 1 µM is more than 50%. For the same molecule, the 50% inhibitory concentration (IC50) with HCT116 cells was less than 0.5 µM; in the assay on MDA-MB-231 cells it was more than 0.5 µM; in the assay on MDA-MB-231 cells (bounds given in μM), less than 1.5 µM.
Consider `COCc1cn2ncnc(N)c2c1-c1ccc(NC(=O)Nc2cc(C(F)(F)F)ccc2F)cc1` [Example 100, N-{4-[4-amino-6-(methoxymethyl)pyrrolo[2,1-f][1,2,4]triazin-5-yl]phenyl}-N′-[2-fluoro-5-(trifluoromethyl)phenyl]urea], for which, in assay [1], the inhibition at 0.1 µM is less than 50%. In addition, the inhibition at 1 µM in assay [1] was more than 50%. Also, the IC50 in assay [2] is more than 0.5 µM; in assay [2] (bound given in μM) it was less than 2 µM; with HCT116 cells (bounds given in μM), 1.5 to 5 µM; with MDA-MB-231 cells (bounds given in μM) it was 1.5 to 5 µM.
Regarding `COCc1cn2ncnc(N)c2c1-c1ccc(NC(=O)Nc2cc(C(F)(F)F)ccn2)cc1` [Example 101, N-{4-[4-amino-6-(methoxymethyl)pyrrolo[2,1-f][1,2,4]triazin-5-yl]phenyl}-N′-[4-(trifluoromethyl)pyridin-2-yl]urea], the half-maximal inhibitory concentration (IC50) was less than 0.01 µM in assay [2] and less than 100 nM in assay [3].
As to `COCc1cn2ncnc(N)c2c1-c1ccc(NC(=O)Nc2cc(F)cc(C(F)(F)F)c2)cc1` [Example 102, N-{4-[4-amino-6-(methoxymethyl)pyrrolo[2,1-f][1,2,4]triazin-5-yl]phenyl}-N′-[3-fluoro-5-(trifluoromethyl)phenyl]urea], the IC50 in assay [2] fell in the range of 0.1 to 0.5 µM; in assay [3], 100 to 500 nM; with HCT116 cells (bounds given in μM) it was 1.5 to 5 µM; in the assay with MDA-MB-231 cells (bounds given in μM) it was 5 to 10 µM.
As for `N#Cc1cn2ncnc(N)c2c1-c1ccc(NC(=O)Nc2ccc(F)c(C(F)(F)F)c2)cc1` [Example 151, N-[4-(4-amino-6-cyanopyrrolo[2,1-f][1,2,4]triazin-5-yl)phenyl]-N′-[4-fluoro-3-(trifluoromethyl)phenyl]urea], the half-inhibitory concentration (IC50) was 0.01 to 0.1 µM in assay [2] and less than 100 nM in assay [3].
With `N#Cc1cn2ncnc(N)c2c1-c1ccc(NC(=O)Nc2cccc(OC(F)(F)F)c2)cc1` [Example 152, N-[4-(4-amino-6-cyanopyrrolo[2,1-f][1,2,4]triazin-5-yl)phenyl]-N′-[3-(trifluoromethoxy)phenyl]urea], the IC50 is 0.1 to 0.5 µM in assay [2] and 100 to 500 nM in assay [3].
With `Nc1ncnn2cc(-c3nnco3)c(-c3ccc(NC(=O)Nc4cc(C(F)(F)F)ccc4F)cc3)c12` [Example 163, N-{4-[4-amino-6-(1,3,4-oxadiazol-2-yl)pyrrolo[2,1-f][1,2,4]triazin-5-yl]phenyl}-N′-[2-fluoro-5-(trifluoromethyl)phenyl]urea], the concentration for half-maximal inhibition (IC50) was more than 0.5 µM in assay [2], less than 2 µM in assay [2] (bound given in μM), 1.5 to 5 µM in the assay on HCT116 cells (bounds given in μM) and 1.5 to 5 µM in the assay with MDA-MB-231 cells (bounds given in μM).
As for `CCOC(=O)c1cn2ncnc(N)c2c1-c1ccc(NC(=O)Nc2cc(C(F)(F)F)ccn2)c(F)c1` [Example 242, ethyl 4-amino-5-{3-fluoro-4-[({[4-(trifluoromethyl)pyridin-2-yl]amino}carbonyl)amino]phenyl}pyrrolo[2,1-f][1,2,4]triazine-6-carboxylate], the IC50 in the assay on HCT116 cells (bounds given in μM) and with MDA-MB-231 cells (bounds given in μM) was 1.5 to 5 µM in each case.
As to `COCCOCc1cn2ncnc(N)c2c1-c1ccc(NC(=O)Nc2cc(C(C)(C)C)nn2-c2ccc(F)cc2)cc1` [Example 248, N-(4-{4-amino-6-[(2-methoxyethoxy)methyl]pyrrolo[2,1-f][1,2,4]triazin-5-yl}phenyl)-N′-[3-tert-butyl-1-(4-fluorophenyl)-1H-pyrazol-5-yl]urea], the half-inhibitory concentration (IC50) with HCT116 cells (bounds given in μM) was 1.5 to 5 µM; in the assay with MDA-MB-231 cells, more than 0.5 µM; in the assay on MDA-MB-231 cells (bounds given in μM), less than 1.5 µM.
Consider `COCc1cn2ncnc(N)c2c1-c1ccc(NC(=O)Nc2cc(C(F)(F)F)ccc2F)c(F)c1` [Example 254, N-{4-[4-amino-6-(methoxymethyl)pyrrolo[2,1-f][1,2,4]triazin-5-yl]-2-fluorophenyl}-N′-[2-fluoro-5-(trifluoromethyl)phenyl]urea], for which the IC50 with HCT116 cells (bounds given in μM) and in the assay on MDA-MB-231 cells (bounds given in μM) was 1.5 to 5 µM in each case.
Regarding `N#CCc1cn2ncnc(N)c2c1-c1ccc(NC(=O)Nc2cc(C(F)(F)F)ccn2)c(F)c1` [Example 255], the IC50 is 1.5 to 5 µM with HCT116 cells (bounds given in μM), more than 0.5 µM with MDA-MB-231 cells and less than 1.5 µM in the assay with MDA-MB-231 cells (bounds given in μM).
As to `N#Cc1cn2ncnc(N)c2c1-c1ccc(NC(=O)Nc2cc(C(F)(F)F)ccc2F)c(F)c1` [Example 256, N-[4-(4-amino-6-cyanopyrrolo[2,1-f][1,2,4]triazin-5-yl)-2-fluorophenyl]-N′-[2-fluoro-5-(trifluoromethyl)phenyl]urea], the IC50 is more than 0.5 µM in the assay on HCT116 cells, less than 1.5 µM in the assay on HCT116 cells (bounds given in μM), more than 0.5 µM with MDA-MB-231 cells and less than 1.5 µM in the assay with MDA-MB-231 cells (bounds given in μM).
As to `Nc1ncnn2cc(-c3nc(CN4CCOCC4)co3)c(-c3ccc(NC(=O)Nc4cc(C(F)(F)F)ccc4F)cc3)c12` [Example 257, N-(4-{4-amino-6-[4-(morpholin-4-ylmethyl)-1,3-oxazol-2-yl]pyrrolo[2,1-f][1,2,4]triazin-5-yl}phenyl)-N′-[2-fluoro-5-(trifluoromethyl)phenyl]urea], the IC50 in the assay with HCT116 cells is more than 0.5 µM; with HCT116 cells (bounds given in μM) it was less than 1.5 µM; in the assay on MDA-MB-231 cells it was more than 0.5 µM; with MDA-MB-231 cells (bounds given in μM), less than 1.5 µM.

Source of the values: US7563791B2, “Pyrrolotriazine derivatives useful for treating hyper-proliferative disorders and diseases associated with angiogenesis” (Bayer Pharmaceuticals Corporation, priority 2004, dated 2009).
